Measurements: patent US6197751A, “Thymosin α1 promotes tissue repair, angiogenesis and cell migration” (The United States of America as represented by the …, priority 1998, dated 2001)
Ends that are not written are not given here.

What was measured:
[1] = test system: HT1080 cells (human fibrosarcoma cell line); experiment: Boyden chamber migration, HT1080 cells; format: cell-based
Protocol: (§1) Human umbilical vein endothelial cells (HUVECs) were isolated from freshly delivered cords according to Jaffe et al. (J. Clin. Invest. 52: 2745, 1973) and grown on Nunclon dishes (Nunc, Denmark) in RPMI 1640 (Life Technologies, Gaithersburg, Md.) supplemented with 20% bovine calf serum (Hyclone Laboratories, Logan Utah), 100 U/ml penicillin/streptomycin (Life Technologies, Gaithersburg, Md.), 50 μg/ml gentamycin (Life Technologies, Gaithersburg, Md.), 2.7 μg/ml amphotericin B (fungizone)(Life Technologies, Gaithersburg, Md.), 5 U/ml sodium heparin (Fisher Scientific, Pittsburgh, Pa.) and 200 μg/ml endothelial cell growth supplement (ECGS) (Collaborative Research, Bedford, Mass.). Cells between passage 3 and 5 were used for all experiments. Human coronary artery endothelial cells (HCAECs) were grown on Nunclon dishes in the HUVEC media. Foreskin fibroblasts (Ffs) were grown in DMEM supplemented with 10% fetal bovine serum (Hyclone) on Falcon (Becton Dickinson, N.J.) dishes. HT1080 cells (human fibrosarcoma cell line) were grown in Falcon flasks in DMEM supplemented with 10% fetal bovine serum. Neutrophils were freshly isolated from buffy coats as previously reported (Kibbey et al., J. Cell Phys. 160:185, 1994). Human aortic smooth muscle cells (AOSMCs) were grown in smooth muscle cell media (Clonetics, San Diego, Calif.) on Nunclon dishes.
(§2) Several cell types were tested to determine if the migratory stimulation observed with Tα1 was specific. […] HUVEC migration assays were carried out in Boyden chambers using 12 ,m pore PVP free filters coated with either a 0.1 mg/ml or 0.05 mg/ml solution of collagen IV as previously reported (Malinda et al., FASEB J. 11:474, 1997). Each condition was assayed in triplicate wells at least three times unless indicated. HCAECs, AOSMCs, FFs, HT1080 cells and neutrophils were cultured or isolated and assayed for migration as previously reported (Malinda et al., FASEB J. 11:474, 1997).

Neutrophils = experiment: Boyden chamber migration, neutrophils; format: cell-based; conditions: for average number of cells that migrated ± SEM: Neutrophils
Protocol: as §1, §2

Monocytes = experiment: Boyden chamber migration, monocytes; format: cell-based; conditions: for average number of cells that migrated ± SEM: Monocytes
Protocol: [The procedure below names another cell line; the source lists this cell line under the same test.] as §2

foreskin fibroblasts = experiment: Boyden chamber migration, foreskin fibroblasts; format: cell-based; conditions: for average number of cells that migrated ± SEM: FF
Protocol: as §1, §2

HUVEC [2] = experiment: In vitro "scratch" wound closure assay; format: cell-based, human; conditions: media alone 1%
Protocol: During angiogenesis the cells may be presented with a constant level of Tα1. The "scratch" wound closure assay was used to assess the potential effects of constant doses of Tα1 on cell migration. Confluent monolayers were "scratch" wounded using the tip of a universal blue pipette tip and rinsed with PBS. Tα1 (1, 10, 100, and 1000 ng/ml) or ECGS (200 μg/ml) was added to the wells in fresh media lacking ECGS but containing 10 mM thymidine to inhibit cell proliferation (Malinda et al., FASEB J. 11: 474, 1997). Antibody inhibition experiments were carried out as described above by wounding the cell monolayer and then adding either anti-Tα1 polyclonal antibody (1/25, 1/50 dilution) or pre-immune serum (1/25 dilution), or fresh media to the plate.

rats = experiment: Full thickness punch biopsy wound healing; format: in vivo; conditions: for reepithelization of the wound / collagen production (Masson's trichrome) / histology of dermis near dermal and epidermal junction: 8 day punch wounds; for wound healing compared to untreated wounds: rats
Protocol: Six full thickness 8 mm punch biopsy wounds were made on the dorsal surface of rats as previously reported (Bhartiya et al., J. Cell. Physiol. 150:312, 1992; Sihhu et al., J. Cell. Physiol. 169:108, 1996) and Tα1 was given topically at the time of wounding (5 μg in 50 μl) and again after 48 hr. Controls for the topical treatment received identical amounts of saline at the time of wounding and at 48 hr. Three rats in each group also received intraperitoneal injections at the time of wounding (60 μg in 300 μl) and again every other day. Controls for these animals received identical amounts of saline i.p. on the same injection schedule. At days 8 and 9 post-wounding, tissue was collected and fixed in 10% buffered formalin (i.p. n=18 samples; topical n=9 samples). The samples were sectioned and stained with H&E and Masson's Trichrome (American Histolabs, Gaithersburg, Md.).

C57Bl/6N female mice = experiment: Subcutaneous Matrigel plug assay; format: in vivo
Protocol: Since Tα1 enhanced HUVEC migration in vitro, experiments were performed to determine if Tα1 promoted cell migration and vessel formation in vivo. Endothelial cells invade and form vessels in Matrigel plugs containing angiogenic factors (Kibbey et al., J. Cell Phys. 160:185, 1994; Passaniti et al., Lab. Invest. 67: 519, 1992). […] Three random fields were collected and analyzed per plug in each of three experiments. […] Cells migrate into the plug from the area closest to the skin forming vessels (FIG. 5). Plugs containing Tα1 (FIGS. 5C and 5D) show many more cells than in the Matrigel alone (FIG. 5A). Cell morphology was similar to those in plugs containing 10 ng/ml of the positive control ECGS (FIG. 5B).

[3] = test system: human aortic smooth muscle cells; experiment: Boyden chamber migration, aortic smooth muscle cells; format: cell-based; conditions: for average number of cells that migrated ± SEM: AOSMC
Protocol: as §1, §2

[4] = test system: human coronary artery endothelial cells; experiment: Boyden chamber migration, coronary artery endothelial cells; format: cell-based; conditions: for average number of cells that migrated ± SEM: HCAEC
Protocol: as §1, §2

HUVECs = experiment: Tube formation assay on Matrigel; format: cell-based, human
Protocol: Migration and differentiation during angiogenesis can be studied in vitro using Matrigel, a basement membrane matrix on which HUVECs undergo capillary-like tube formation (Grant et al., J. Cell. Physiol. 153: 614, 1992; Kubota et al., J. Cell Biol. 107: 1589, 1988). The tube formation assay was performed according to Grant et al. (J. Cell. Physiol. 153:614, 1992) with the following modifications. Twenty-four well Nunclon plates were coated with 320 μl of Matrigel (10 mg/ml) and incubated at 37° C. for 30 min to promote gelling. 30,000 HUVECs were resuspended in growth media and added to each well with 1, 10, 100 and 1000 ng of synthetic Tα1, 20 and 200 μg/ml ECGS (a bovine brain extract that contains aFGF and bFGF and acts as a positive control) or media alone. The final serum concentrations were 10% or 5%. After 18 h, plates were fixed with Diff-Quik (Baxter Healthcare Corporation, McGraw Park, Ill.) and the length of the tubes was measured using an Olympus CK2 microscope with a 2× objective connected to a Javelin CCTV camera with a 3.3× coupler and NIH Image 1.57 software. Three random measurements of each of four wells at each culture condition were measured. Each experiment was repeated at least three times.

HUVEC [5] = experiment: HUVEC migration in Boyden chamber assays; format: cell-based, human
Protocol: as §2

laminin [LN, reference compound]
average number of cells that migrated ± SEM ([1]; HT1080, positive control 1 ug/ml): 661.2 ± 37
average number of cells that migrated ± SEM ([1]; HT1080, positive control 5 ug/ml): 1136 ± 70.3

FMLP [reference compound]
average number of cells that migrated ± SEM (Neutrophils; positive control 10^-7 M): 1404.7 ± 58.2
average number of cells that migrated ± SEM (Monocytes; positive control 10^-7 M): 74 ± 2.1

basic fibroblast growth factor [bFGF, reference compound]
average number of cells that migrated ± SEM (foreskin fibroblasts; positive control 10 ng/ml): 12.3 ± 0.3

thymosin α1 (SDAAVDTSSEITTKDLKEKKEVVEEAEN; not fully specified; ends and bridges not checked; UniProt P06454 2-29, looked up) [Tα1, 28 amino acid peptide which results from the cleavage of the N-terminal region of prothymosin α1]
average number of cells that migrated ± SEM (foreskin fibroblasts; Thymosin α1 1 ng/ml): 5 ± 0.4
average number of cells that migrated ± SEM (foreskin fibroblasts; Thymosin α1 10 ng/ml): 5 ± 0.4
average number of cells that migrated ± SEM (foreskin fibroblasts; Thymosin α1 100 ng/ml): 4.8 ± 0.7
average number of cells that migrated ± SEM (foreskin fibroblasts; Thymosin α1 1000 ng/ml): 5.2 ± 0.5
migration toward Tα1 (foreskin fibroblasts; Foreskin fibroblasts): did not demonstrate any significant migration
wound closure (HUVEC [2]; 100 ng/ml Tα1, 2 h): 7%
wound closure (HUVEC [2]; 1000 ng/ml Tα1, 2 h after wounding): 14%
average number of cells that migrated ± SEM (Neutrophils; Thymosin α1 1 ng/ml): 138.7
average number of cells that migrated ± SEM (Neutrophils; Thymosin α1 10 ng/ml): 138.7 ± 20
average number of cells that migrated ± SEM (Neutrophils; Thymosin α1 100 ng/ml): 149.3 ± 13.5
average number of cells that migrated ± SEM (Neutrophils; Thymosin α1 1000 ng/ml): 149.3 ± 27
migration toward Tα1 (Neutrophils; neutrophils): did not demonstrate any significant migration
Monocyte migration (Monocytes; 100 ng/ml): appeared to be inhibited
Monocyte migration (Monocytes; 1000 ng/ml of Tα1): increased
average number of cells that migrated ± SEM (Monocytes; Thymosin α1 100 ng/ml): 20 ± 5.4
average number of cells that migrated ± SEM (Monocytes; Thymosin α1 1000 ng/ml): 80 ± 7.6
reepithelization of the wound (rats; intraperitoneal on alternate days 60 μg/300 μl): Complete reepithelization
wound healing compared to untreated wounds (rats; intraperitoneal, 60 μg in 300 μl every other day): significantly accelerated wound healing
collagen production (Masson's trichrome) (rats; intraperitoneal): enhanced collagen production
histology of dermis near dermal and epidermal junction (rats; intraperitoneal): capillary ingrowth in granulation tissue and hypercellular dermis
reepithelization of the wound (rats; topical 5 μg/50 μl): complete reepithelization of the wound with 2-3 layers of thick epidermis
wound healing compared to untreated wounds (rats; topical, 5 μg in 50 μl at wounding and after 48 hr): significantly accelerated wound healing
collagen production (Masson's trichrome) (rats; topical): enhanced collagen production
histology of dermis near dermal and epidermal junction (rats; topical): capillary ingrowth in granulation tissue and hypercellular dermis
cell migration into plugs (C57Bl/6N female mice; 1 μg/ml and 500 μg/ml): a decrease in migration was observed
cell migration and angiogenesis in vivo vs Matrigel alone (C57Bl/6N female mice; 5 μg/ml of Tα1): always significantly higher than Matrigel alone
average number of cells that migrated ± SEM ([3]; Thymosin α1 1 ng/ml): 1 ± 0.3
average number of cells that migrated ± SEM ([3]; Thymosin α1 10 ng/ml): 1 ± 0.4
average number of cells that migrated ± SEM ([3]; Thymosin α1 100 ng/ml): 0.5 ± 0.5
average number of cells that migrated ± SEM ([3]; Thymosin α1 1000 ng/ml): 1 ± 0.4
migration toward Tα1 ([3]; human aortic smooth muscle cells): did not demonstrate any significant migration
increase in migration over media alone ([4]; 1000 ng of Tα1): 2 fold
migration ([4]; 1-100 ng doses): Significant migration
average number of cells that migrated ± SEM ([4]; Thymosin α1 1 ng/ml): 14 ± 0.3
average number of cells that migrated ± SEM ([4]; Thymosin α1 10 ng/ml): 16 ± 0.5
average number of cells that migrated ± SEM ([4]; Thymosin α1 100 ng/ml): 18 ± 0.4
average number of cells that migrated ± SEM ([4]; Thymosin α1 1000 ng/ml): 21 ± 0.4
tube formation (HUVECs; 1 or 10 ng/ml Tα1, 5% serum): did not form tubes
tube formation (HUVECs; 100 and 1000 ng/ml Tα1, 5% serum): formed highly organized tubes
tube formation vs control cells (HUVECs; 100 or 1000 ng/ml Tα1, 10% serum): formed more tubes than control cells
average length of tubes (HUVECs; 100 or 1000 ng/ml Tα1, 10% serum, 18 h, media alone 208 μm): 316-324 μm
average number of cells that migrated ± SEM ([1]; HT1080, Thymosin α1 1 ng/ml): 2.4 ± 0.8
average number of cells that migrated ± SEM ([1]; HT1080, Thymosin α1 10 ng/ml): 1.8 ± 0.4
average number of cells that migrated ± SEM ([1]; HT1080, Thymosin α1 100 ng/ml): 1.3 ± 0.7
average number of cells that migrated ± SEM ([1]; HT1080, Thymosin α1 1000 ng/ml): 0.9 ± 0.4
migration toward Tα1 ([1]; HT1080 fibrosarcoma cells): did not demonstrate any significant migration
increase in HUVEC migration (HUVEC [5]; Tα1 in the lower wells, filters coated with collagen IV): 3-6 fold
checkerboard assay, chemoattraction vs chemokinesis (HUVEC [5]; increasing Tα1 in lower well vs in upper and lower wells): More cells migrated along the concentration gradient of Tα1 in the lower well

B1: PDGF-BB: platelet derived growth factor B form, positive control (protein, UniProt P01127 82-190, looked up)
Platelet-derived growth …: SLGSLTIAEPAMIAECKTRTEVFEISRRLIDRTNANFLVWPPCVEVQRCSGCCNNRNVQCRPTQVQLRPVQVRKIEIVRKKPIFKKATVTLEDHLACKCETVAAARPVT
average number of cells that migrated ± SEM ([3]; positive control 10 ng/ml): 36 ± 4.5
